The test system of assay [1] is LNCap prostate tumor cells. Description: In vitro cell growth assay (MTS), LNCap. The assay is classed as cell-based, human. Particulars: three days after drug treatment. The method, then: (§1) Cell lines used were human adenocarcinoma (LoVo), […], prostate (LNCap), breast (MDA468, MCF7), colon (HCT116), renal (HTB44 A498), and ovarian (OVCAR3) tumor cell lines. The tumor cells were plated in 96-well culture plates at approximately 3000 cells per well. One day following plating, various concentrations of inhibitors in DMSO were added to cells (final DMSO concentration in cell assays was 0.25%). Three days after drug treatment, viable cell densities were determined by cell mediated metabolic conversion of the dye MTS, a well-established indicator of cell proliferation in vitro. Cell growth assays were performed using kits purchased from Promega Corporation (Madison, Wis.), following the protocol provided by the vendor. Measuring absorbance at 490 nm generated MTS assay results. Compound effect on cell proliferation was assessed relative to untreated control cell growth.

Assay [2] concerns the target PI3Kα (Homo sapiens, UniProt P42336). Description: PI3Kα fluorescence polarization assay. The class given is biochemical. Particulars: 20 μM PIP2, 25 μM ATP. The method, then:
The reaction buffer was 20 mM HEPES pH7.5, 2 mM MgCl2, 0.05% CHAPS, and 0.01% βME (added fresh). The substrate solution was 40 μM PIP2 (diC8, Echelon, Salt Lake City Utah cat #P-4508, 1 mM in water) and 50 μM ATP in the reaction buffer. Nunc 384-well black polypropylene fluorescent plates were used for PI3K assays. The assay is run by putting 9.5 μl of freshly diluted enzyme in the reaction buffer per well, adding 0.5 μl of diluted drug or DMSO, and mixing. Then 10 μl of the substrate solution is added to each well to start the reaction. A final concentration of 20 μM PIP2 and 25 μM ATP in the reaction was used. Reactions were allowed to proceed for 30-60 minutes at room temperature. After 30-60 minutes, 20 μl of a solution of 10 nM TAMRA detector (Red detector probe-Echelon) and 2.5 uM of GST-murine GRP (1.5 mg/ml in 17% glycerol) was added per well to stop the reaction. The resulting solution was mixed well and allowed to stand for 90-110 minutes before reading plate. Assay Plates were read on Perkin-Elmer Envision plate readers with appropriate filters for Tamra [BODIPY-TMRI(1,3,4,5)P4]. Data obtained were used to calculate enzymatic activity and enzyme inhibition by inhibitor compounds. It is important to keep Red probe solutions dark. This procedure is adapted from Echelon Biosciences Inc procedure for their PI3-Kinase fluorescence polarization activity Assay kit Product number K-1100.
For orientation: Fluorescence polarisation rises when a labelled molecule tumbles more slowly, as on binding a larger partner.

In assay [3] the test system is MDA468 breast tumor cells. Description: In vitro cell growth assay (MTS), MDA468. The assay is classed as cell-based, human. As to conditions: three days after drug treatment. As for the experimental part:
as §1

Assay [4] has as its target human TOR (FLAG-TOR) (Homo sapiens, UniProt P42345). Briefly: mTOR enzyme assay (DELFIA format, purified enzyme). Particulars: 800 ng/ml FLAG-TOR, 100 μM ATP, 1.25 μM His6-S6K; read-out: mTOR Kinase IC50. The class given is biochemical.

The structures appear in SMILES notation.

Sequence of PI3Kα (P42336 whole entry, species assumed): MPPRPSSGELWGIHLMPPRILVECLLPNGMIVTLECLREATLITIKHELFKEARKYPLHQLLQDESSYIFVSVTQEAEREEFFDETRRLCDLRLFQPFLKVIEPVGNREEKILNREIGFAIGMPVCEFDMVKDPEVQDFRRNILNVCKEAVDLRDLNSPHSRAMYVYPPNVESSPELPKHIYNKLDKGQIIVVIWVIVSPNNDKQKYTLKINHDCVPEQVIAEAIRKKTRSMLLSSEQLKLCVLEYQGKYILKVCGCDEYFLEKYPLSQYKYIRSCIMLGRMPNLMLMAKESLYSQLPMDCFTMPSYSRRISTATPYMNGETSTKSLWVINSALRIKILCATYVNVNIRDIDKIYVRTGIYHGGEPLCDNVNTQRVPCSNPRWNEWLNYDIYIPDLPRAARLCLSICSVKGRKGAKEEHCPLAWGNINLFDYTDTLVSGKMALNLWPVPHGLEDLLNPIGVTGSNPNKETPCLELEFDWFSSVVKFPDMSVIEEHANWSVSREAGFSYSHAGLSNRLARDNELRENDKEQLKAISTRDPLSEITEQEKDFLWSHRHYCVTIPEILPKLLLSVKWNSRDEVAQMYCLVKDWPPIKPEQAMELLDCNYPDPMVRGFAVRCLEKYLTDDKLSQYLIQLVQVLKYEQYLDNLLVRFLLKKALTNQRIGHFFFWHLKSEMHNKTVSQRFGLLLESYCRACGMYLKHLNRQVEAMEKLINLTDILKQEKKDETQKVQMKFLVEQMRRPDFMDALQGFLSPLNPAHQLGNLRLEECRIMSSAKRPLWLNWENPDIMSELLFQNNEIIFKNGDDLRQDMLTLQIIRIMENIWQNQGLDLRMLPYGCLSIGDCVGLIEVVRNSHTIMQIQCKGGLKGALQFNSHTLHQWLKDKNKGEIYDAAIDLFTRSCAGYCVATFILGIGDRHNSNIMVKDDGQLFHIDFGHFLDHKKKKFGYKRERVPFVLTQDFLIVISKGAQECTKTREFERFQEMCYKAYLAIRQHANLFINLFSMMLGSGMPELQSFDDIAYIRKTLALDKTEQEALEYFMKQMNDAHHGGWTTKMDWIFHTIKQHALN
Sequence of PI3Kα (P27986 whole entry partner, species assumed): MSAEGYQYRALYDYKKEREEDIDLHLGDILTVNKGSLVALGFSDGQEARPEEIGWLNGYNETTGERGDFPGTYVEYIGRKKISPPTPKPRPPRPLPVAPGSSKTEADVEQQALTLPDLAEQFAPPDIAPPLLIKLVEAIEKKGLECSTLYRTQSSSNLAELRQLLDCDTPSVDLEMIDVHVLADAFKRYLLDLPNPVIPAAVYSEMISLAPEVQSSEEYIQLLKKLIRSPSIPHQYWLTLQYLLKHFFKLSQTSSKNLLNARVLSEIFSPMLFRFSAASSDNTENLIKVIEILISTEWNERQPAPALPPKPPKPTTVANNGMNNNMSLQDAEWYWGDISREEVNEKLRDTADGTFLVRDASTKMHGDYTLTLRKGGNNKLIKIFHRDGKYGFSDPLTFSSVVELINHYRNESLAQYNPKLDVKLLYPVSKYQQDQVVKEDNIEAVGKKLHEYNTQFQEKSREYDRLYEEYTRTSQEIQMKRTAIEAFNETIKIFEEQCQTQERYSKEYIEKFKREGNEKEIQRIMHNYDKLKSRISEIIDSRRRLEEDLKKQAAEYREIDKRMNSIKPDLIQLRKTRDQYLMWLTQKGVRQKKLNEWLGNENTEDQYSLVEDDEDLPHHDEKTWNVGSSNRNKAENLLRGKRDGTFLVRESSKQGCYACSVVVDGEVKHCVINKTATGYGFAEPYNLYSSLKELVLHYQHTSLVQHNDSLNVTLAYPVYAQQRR

On to `O=c1cc(Oc2cccc(NCc3ccc(F)nc3)c2)c2ccccc2[nH]1` [drawing 208], for which the IC50 in assay [1] was found to be 4 µM; in assay [2] it was 9.54 µM; in assay [3], 11 µM.
`CN1CCN(c2cc(-c3ccc(Oc4cc(=O)[nH]c5ccccc45)cc3)ccn2)CC1`: the IC50 in assay [1] (Homo sapiens, LNCaP, 72 h) is 0.8 µM; in assay [2] it was 9 µM; in assay [3] (Homo sapiens, 72 h), 1.2 µM; in assay [4], 0.56 µM.
For the compound `O=c1cc(Oc2ccc(Br)cc2)c2ccccc2[nH]1`, the IC50 in assay [1] (Homo sapiens, LNCaP, 72 h) is more than 60 µM; in assay [2], 4.11 µM; in assay [3] (Homo sapiens, 72 h), 50 µM; in assay [4], 2.2 µM.
Turning to `O=c1cc(Oc2cccc(NC3CCN(Cc4ccncc4)CC3)c2)c2ccccc2[nH]1`, the IC50 in assay [1] (Homo sapiens, LNCaP, 72 h) is 6.4 µM; in assay [2] it was more than 10 µM; in assay [3] (Homo sapiens, 72 h), 31 µM; in assay [4], 0.15 µM.
Take `O=c1cc(Oc2cccc3ccccc23)c2ccccc2[nH]1`: the IC50 in assay [1] (Homo sapiens, LNCaP, 72 h) is more than 60 µM; in assay [2] it was more than 10 µM; in assay [3] (Homo sapiens, 72 h), more than 60 µM; in assay [4] it was 0.23 µM.
For `O=c1cc(Oc2ccccc2)c2cc(-c3ccccc3)ccc2[nH]1`, the IC50 in assay [2] came to 8.23 µM; in assay [4], 8.2 µM.
`CN(C)CCCOc1ccc(-c2cccc(Oc3cc(=O)[nH]c4ccccc34)c2)cn1`: the IC50 in assay [1] (Homo sapiens, LNCaP, 72 h) was 3.8 µM; in assay [2], more than 10 µM; in assay [3] (Homo sapiens, 72 h), 10 µM; in assay [4] it was 0.08 µM.
Take `O=c1cc(Oc2cccc(NC3CCN(Cc4ccccn4)CC3)c2)c2ccccc2[nH]1`: the IC50 in assay [1] (Homo sapiens, LNCaP, 72 h) is 6.5 µM; in assay [2], more than 10 µM; in assay [3] (Homo sapiens, 72 h), 19 µM; in assay [4], 0.19 µM.
On to `O=c1cc(Oc2ccc(-c3cn[nH]c3)cc2)c2ccccc2[nH]1`, for which the half-inhibitory concentration (IC50) in assay [1] (Homo sapiens, LNCaP, 72 h) is 60 µM; in assay [2], 2.17 µM; in assay [3] (Homo sapiens, 72 h), 60 µM; in assay [4], more than 20 µM.
On to `O=c1cc(Oc2ccccc2)c2ccc(Cl)cc2[nH]1`, for which the results for the IC50 in assay [2] and in assay [4] were 0.308 µM and more than 20 µM, respectively.
Consider `O=c1cc(Oc2cccc(NCc3ccsc3)c2)c2ccccc2[nH]1`, for which the IC50 in assay [1] (Homo sapiens, LNCaP, 72 h) is 35 µM; in assay [2] it was more than 10 µM; in assay [4] it was 0.12 µM.
On to `CN(C)CC(=O)Nc1ccc2[nH]c(=O)cc(Oc3ccccc3)c2c1`, for which the 50% inhibitory concentration (IC50) in assay [1] (Homo sapiens, LNCaP, 72 h) was more than 60 µM; in assay [2] it was more than 10 µM; in assay [3] (Homo sapiens, 72 h), more than 60 µM; in assay [4], more than 20 µM.
`CN1CCN(c2cc(-c3cccc(Oc4cc(=O)[nH]c5ccccc45)c3)ccn2)CC1`: the IC50 is 2.5 µM in assay [1] (Homo sapiens, LNCaP, 72 h); more than 10 µM in assay [2]; 4.05 µM in assay [3] (Homo sapiens, 72 h); 0.4 µM in assay [4].
Regarding `O=c1cc(Oc2ccc(-c3ccoc3)cc2)c2ccccc2[nH]1`, the IC50 is more than 60 µM in assay [1] (Homo sapiens, LNCaP, 72 h); 1.94 µM in assay [2]; more than 60 µM in assay [3] (Homo sapiens, 72 h); more than 20 µM in assay [4].
With `CN(C)CCCNC(=O)c1cccc(-c2cccc(Oc3cc(=O)[nH]c4ccccc34)c2)c1`, the IC50 in assay [1] (Homo sapiens, LNCaP, 72 h) is 4.3 µM; in assay [2], more than 10 µM; in assay [3] (Homo sapiens, 72 h) it was 10 µM; in assay [4], 0.5 µM.
For the compound `CC(=O)Nc1ccc(-c2cccc(Oc3cc(=O)[nH]c4ccccc34)c2)cc1`, the IC50 in assay [1] (Homo sapiens, LNCaP, 72 h) came to 15 µM; in assay [2], 3.67 µM; in assay [3] (Homo sapiens, 72 h) it was 11 µM; in assay [4] it was 0.22 µM.
In the case of `O=c1cc(Oc2ccccn2)c2ccccc2[nH]1` [drawing 389], the IC50 in assay [1] (Homo sapiens, LNCaP, 72 h) is more than 60 µM; in assay [2], 8.74 µM; in assay [4] it was 9.7 µM.
On to `O=c1cc(Oc2ccc(-c3ccsc3)cc2)c2ccccc2[nH]1`, for which the IC50 in assay [1] (Homo sapiens, LNCaP, 72 h) was more than 60 µM; in assay [2] it was 2.51 µM; in assay [3] (Homo sapiens, 72 h), more than 60 µM; in assay [4], more than 20 µM.
In the case of `CC(Nc1cccc(Oc2cc(=O)[nH]c3ccccc23)c1)c1ccncc1` (centres unmarked), the IC50 in assay [1] (Homo sapiens, LNCaP, 72 h) came out at 3.1 µM; in assay [2], 7.52 µM; in assay [3] (Homo sapiens, 72 h) it was 11 µM; in assay [4], 0.14 µM.
Consider `Nc1cccc(Oc2cc(=O)[nH]c3cc(Cl)ccc23)c1`, for which the IC50 in assay [1] (Homo sapiens, LNCaP, 72 h) is 4.5 µM; in assay [2], 6.73 µM; in assay [3] (Homo sapiens, 72 h), more than 60 µM; in assay [4], 0.6 µM.
For `O=c1cc(Oc2cccc(-c3ccc(N4CCNCC4)nc3)c2)c2ccccc2[nH]1`, in that order: 4.8 µM, more than 10 µM, 7 µM and 0.15 µM.
For `O=c1cc(Oc2cccc(NCc3cncc(F)c3)c2)c2ccccc2[nH]1`, in that order: 1.9 µM, 8.99 µM, 7.2 µM and 0.05 µM.
In the same order, the values of `Cc1n[nH]c(C)c1-c1ccc(Oc2cc(=O)[nH]c3ccccc23)cc1` are more than 60 µM, 6.95 µM, more than 60 µM and 1.85 µM.
As for `O=c1cc(Oc2cccc(-c3ccncc3)c2)c2ccccc2[nH]1`, the IC50 was 7 µM in assay [1] (Homo sapiens, LNCaP, 72 h); more than 10 µM in assay [2]; 60 µM in assay [3] (Homo sapiens, 72 h); 0.37 µM in assay [4].
In the same order, the values of `COc1ccc(Oc2cc(=O)[nH]c3ccccc23)cc1` are more than 60 µM, 11 µM, more than 60 µM and 0.54 µM.
In the same order, the values of `Cn1cc(CNc2cccc(Oc3cc(=O)[nH]c4ccccc34)c2)cn1` are 4 µM, 4.79 µM, 8.8 µM and 0.17 µM.
Take `O=c1cc(Oc2cccc(NCc3ccncc3)c2)c2ccccc2[nH]1`: the half-inhibitory concentration (IC50) in assay [1] (Homo sapiens, LNCaP, 72 h) is 5 µM; in assay [2], more than 10 µM; in assay [3] (Homo sapiens, 72 h) it was 10 µM; in assay [4] it was 0.15 µM.
Regarding `O=c1cc(Oc2cccc(OCc3ccccc3)c2)c2ccccc2[nH]1` [drawing 351], the IC50 in assay [1] (Homo sapiens, LNCaP, 72 h) was more than 60 µM; in assay [2], 4.15 µM; in assay [3] (Homo sapiens, 72 h), more than 60 µM.
Consider `O=c1cc(Oc2ccccc2)c2cc(Br)ccc2[nH]1`, for which the IC50 was more than 10 µM in assay [2] and more than 20 µM in assay [4].
On to `COC[C@@H]1CCCN1CCNc1ccc(-c2cccc(Oc3cc(=O)[nH]c4ccccc34)c2)cc1`, for which the IC50 was 5 µM in assay [1] (Homo sapiens, LNCaP, 72 h); 11 µM in assay [2]; 0.13 µM in assay [4].
`CN1CCC(N(C)c2cccc(-c3cccc(Oc4cc(=O)[nH]c5ccccc45)c3)c2)CC1`: the IC50 in assay [1] (Homo sapiens, LNCaP, 72 h) came to 3 µM; in assay [2], 8.31 µM; in assay [4] it was 0.33 µM.
Regarding `O=c1cc(Oc2cccc(NCc3ccc(F)nc3)c2)c2ccccc2[nH]1` [drawing 218], the half-inhibitory concentration (IC50) in assay [1] worked out at 13 µM; in assay [3], 50 µM.
For `O=c1cc(Oc2cccc(NCc3ccccc3)c2)c2ccccc2[nH]1`, the IC50 in assay [1] (Homo sapiens, LNCaP, 72 h) turned out to be 6 µM; in assay [2], 3.78 µM; in assay [4], 0.14 µM.
In the same order, the values of `CN1CCN(c2cccc(Oc3cc(=O)[nH]c4ccccc34)c2)CC1` [drawing 359] are 0.62 µM, 10.3 µM and 0.37 µM.
`CC(=O)Nc1ccc(Oc2cc(=O)[nH]c3ccccc23)cc1`: the IC50 was determined as 7.28 µM in assay [2] and 6 µM in assay [4].
Take `CC(C)(C)OC(=O)Nc1ccc(CNc2cccc(Oc3cc(=O)[nH]c4ccccc34)c2)cn1`: the IC50 in assay [1] (Homo sapiens, LNCaP, 72 h) came out at 12 µM; in assay [3] (Homo sapiens, 72 h), 60 µM; in assay [4] it was 0.42 µM.
Turning to `Nc1ncccc1CNc1cccc(Oc2cc(=O)[nH]c3ccccc23)c1`, the IC50 was 4 µM in assay [1] (Homo sapiens, LNCaP, 72 h); more than 10 µM in assay [2]; 0.07 µM in assay [4].
Take `CN(C)CCCN1CCN(c2cccc(Oc3cc(=O)[nH]c4ccccc34)c2)CC1`: the IC50 in assay [1] (Homo sapiens, LNCaP, 72 h) amounted to 7 µM; in assay [3] (Homo sapiens, 72 h), 10.5 µM; in assay [4] it was 0.72 µM.
In the case of `CC(C)(C)CNc1ncccc1CNc1cccc(Oc2cc(=O)[nH]c3ccccc23)c1`, the half-maximal inhibitory concentration (IC50) turned out to be 4.2 µM in assay [1] (Homo sapiens, LNCaP, 72 h); 10 µM in assay [3] (Homo sapiens, 72 h); 0.16 µM in assay [4].
For the compound `O=c1cc(Oc2ccccc2)c2cc(-c3ccncc3)ccc2[nH]1`, the IC50 in assay [1] (Homo sapiens, LNCaP, 72 h) is 60 µM; in assay [2], 3.94 µM; in assay [3] (Homo sapiens, 72 h), 60 µM.
Consider `O=c1cc(Oc2cccc(NCc3ccc(-n4ccnc4)cc3)c2)c2ccccc2[nH]1`, for which the IC50 in assay [1] (Homo sapiens, LNCaP, 72 h) was 4 µM; in assay [2], more than 10 µM; in assay [4], 0.08 µM.

For orientation: IC50 means the concentration needed to halve the response being measured.
